In patent US10286084B2, “Compositions for the inactivation of virus replication and methods of making and using the same” (priority 2014, dated 2019):
Structures can show the parent of a compound that is named as a salt. Where two headings read alike, the source gives them in different places.

Columns and labels:
Assay type in all cases: cell-based
HBV = HBV DNA release into supernatant of transduced HBV2.2.15 cells, with or without antivirals; details: compound 1 μM, relative to untreated N.S. sgRNA cells, average ± SD; for inhibition at 1 µM: Hepatitis B virus
Protocol: HepAD38 or HBV2.2.15 cells were transduced with lentiviral vectors expressing a puromycin resistance gene as well as Spy Cas9 and an sgRNA, as described above, at 85-90% confluency after growth in medium lacking Tet for 48 h, to ensure expression of HBV mRNAs and DNA. Beginning at 48 h post-transduction, cells were selected in 4 μg/ml puromycin (Life Technologies) for 10 days to eliminate any non-transduced cells. Supernatant media and cells were then harvested for ELISA and real-time PCR assays. Control cells including non-transduced HepAD38 cells were included as positive controls for HBV replication (in medium lacking Tet) or virtual absence of HBV replication (in medium containing Tet). Non-transduced HBV 2.2.15 cells were included as a control in experiments where relevant.
On day 7, total DNA was purified from supernatant using a commercially available kit (DNeasy Blood & Tissue kit, Qiagen). The HBV DNA was amplified in a real-time PCR assay using the AB 7900HT sequence detection system (Applied Biosystems) or the LightCycler 480 (Roche) as described by Stuyver et al. (2002). All samples were tested in duplicate. The concentration of compound that inhibited HBV DNA replication by 50% (EC50) or 90% (EC90) was determined by linear regression. HBV log viral reduction was also determined.
After transduction with Cas9/sgRNA expressing lentiviral constructs and selection, we observed that extracellular levels of HBV DNA were suppressed by ˜98%, ˜80%, and ˜90%, respectively, by the RT, surface Ag, and core specific Cas9/sgRNA combinations (Table 1).

HSV-1 ICP0 gene = assay: FLuc indicator assay in 293T cells, Sau Cas9 sgRNA expressed from various tRNAs; details: Sau Cas9, identical HSV-1 ICP0 sgRNA (SEQ ID NO: 16), tRNA promoter varied
From the text: (§1) Human tRNA sequences were obtained from the Genomic tRNA database and the MHV tRNA-7 sequence was obtained from Bogerd et al. 2010. (Mol. Cell 37, p135-142, 2010). To generate a tRNA-sgRNA expression construct, overlapping oligonucleotides were assembled to create a tRNA fused to an sgRNA scaffold and a pol III termination signal. Between the tRNA and the sgRNA scaffold, two BsmBI or BbsI sites were incorporated to allow for the insertion of variable targeting sequences. tRNA-sgRNA cassettes were then cloned into Cas9 expression vectors pCMVSau (discussed more fully below), pCMVNme, or pX330 (Addgene, plasmid #42230) expressing S. aureus, N. meningitidis, or S. pyogenes Cas9, respectively. In the case of pX330 the U6 promoter was exchanged for the tRNA-sgRNA cassette.
(§2) Reporter assays with 293T cells were performed by using the calcium phosphate transfection method. Briefly, 293T cells were plated at ˜1.25×10^5 cells per well in 12-well plates and transfected with a 4:1 ratio of the RGN expression plasmid to the FLuc-based indicator plasmid as well as 10 ng of a RLuc plasmid. Transfected 293T cells were then harvested 72 hours post transfection in Passive Lysis Buffer (Promega) and assayed for both FLuc and RLuc activity (Promega Dual-Luciferase Reporter Assay System) with RLuc serving as an internal control and normalization factor.
As such Sau encodes a promising Cas9 gene for potential use in AAV vectors. To analyze whether we could also produce active Sau sgRNAs using tRNA promoters, we expressed the identical Sau sgRNA, specific for a target within the HSV-1 ICP0 gene (SEQ ID NO: 16), using a wide range of human tRNAs. […] The reason for the lower efficiency of processing seen with all of these tRNA:sgRNA fusions is currently unclear, but could relate to the single invariant sgRNA sequence used in this experiment.

[1] = system: HPV-18 E6 or E7 gene target; assay: FLuc indicator assay in 293T cells, Spy Cas9 sgRNAs expressed from U6 or tRNA promoters; details: Spy Cas9, 72 h, promoter driving the sgRNA varied
From the text: as §1, §2
Initially we generated predicted fusion transcripts consisting of a human glutamine tRNA (SEQ ID NO: 41), a human histidine tRNA (SEQ ID NO: 44) or an MHV68 tRNA (M1-7; SEQ ID NO: 50)) linked to Spy Cas9 sgRNAs specific for a target DNA sequence derived either from the human papillomavirus serotype 18 (HPV-18) E6 or E7 gene (SEQ ID NO: 8 and 10, respectively), as described above. Indicator plasmids consisting of these viral target sequences linked to the FLuc gene, constructed as described above, were then co-transfected into 293T cells along with a plasmid encoding Spy Cas9, plasmids encoding each of the tRNA promoters, or the U6 promoter, linked to the same sgRNA and finally a RLuc-based internal control plasmid. Cells were harvested at 72 h post-transfection and FLuc and RLuc levels determined.

[2] = HBV2.2.15 cells expressing Cas9 and HBV RT sgRNA, read-out: Percent inhibition of HBV DNA release into the supernatant medium, HBV RT sgRNA
[3] = HBV2.2.15 cells expressing Cas9 and HBV core sgRNA, read-out: Percent inhibition of HBV DNA release into the supernatant medium, HBV core sgRNA
[4] = HBV2.2.15 cells expressing Cas9 and HBV surface sgRNA, read-out: Percent inhibition of HBV DNA release into the supernatant medium, HBV surface sgRNA
[5] = HBV2.2.15 cells expressing Cas9 and N.S. sgRNA, triplicate, read-out: Percent inhibition of HBV DNA release into the supernatant medium, N.S. sgRNA

Nc1ccn([C@@H]2CS[C@H](CO)O2)c(=O)n1 [3TC, lamivudine]
inhibition at 1 µM (HBV; [2]): 99.1 ± 0.03% | inhibition at 1 µM (HBV; [3]): 97.1 ± 0.5% | inhibition at 1 µM (HBV; [4]): 96.3 ± 0.1% | inhibition at 1 µM (HBV; [5]): 61.4 ± 6.2%

C=C1[C@H](CO)[C@@H](O)C[C@@H]1n1cnc2c(=O)[nH]c(N)nc21 [ETV, entecavir]
inhibition at 1 µM (HBV; [2]): 98.5 ± 1% | inhibition at 1 µM (HBV; [3]): 97.9 ± 0.6% | inhibition at 1 µM (HBV; [4]): 97.6 ± 1.1% | inhibition at 1 µM (HBV; [5]): 78.3 ± 7.9%

COC(=O)C1=C(CN2CCOCC2)NC(c2ccccn2)=NC1c1ccc(F)cc1Cl (stereo not shown) [HAP12, heteroaryldihydropyrimidine]
Percent inhibition of HBV DNA release into the supernatant medium, HBV RT sgRNA (HBV; HBV2.2.15 cells expressing Cas9 and HBV RT sgRNA): 97.5 ± 0.7% | Percent inhibition of HBV DNA release into the supernatant medium, HBV core sgRNA (HBV; HBV2.2.15 cells expressing Cas9 and HBV core sgRNA): 97.6 ± 0.1% | Percent inhibition of HBV DNA release into the supernatant medium, HBV surface sgRNA (HBV; HBV2.2.15 cells expressing Cas9 and HBV surface sgRNA): 98.0 ± 0.3% | Percent inhibition of HBV DNA release into the supernatant medium, N.S. sgRNA (HBV; HBV2.2.15 cells expressing Cas9 and N.S. sgRNA, triplicate): 77.5 ± 5.2%

CC(C)OC(=O)OCOP(=O)(CO[C@H](C)Cn1cnc2c(N)ncnc21)OCOC(=O)OC(C)C [TDF, tenofovir disoproxil fumarate]
inhibition at 1 µM (HBV; [2]): 98.9 ± 0.2% | inhibition at 1 µM (HBV; [3]): 97 ± 0.3% | inhibition at 1 µM (HBV; [4]): 95.9 ± 0.7% | inhibition at 1 µM (HBV; [5]): 68.1 ± 1.5%

B1: tRNACYS: human tRNA promoter, SEQ ID NO: 48, fused to sgRNA (nucleic acid)
DNA: GGGGGTATAGCTCAGGGGTAGAGCATTTGACTGCAGATCAAGAGGTCCCCAGTTCAAATCTGGGTGCCCCCT
modifications: expressed or natural sequence
knockdown of FLuc indicator (HSV-1 ICP0 gene): readily detectable knockdown

B2: tRNAHIS: human histidine tRNA promoter (SEQ ID NO: 44) fused to sgRNA (nucleic acid)
DNA: GCCGTGATCGTATAGTGGTTAGTACTCTGCGTTGTGGCCGCAGCAACCTCGGTTCGAATCCGAGTCACGGCA
modifications: expressed or natural sequence
knockdown of E6- and E7-based FLuc indicator constructs [1]: slightly less effective

B3: tRNATYR: human tRNA promoter, SEQ ID NO: 49, fused to sgRNA (nucleic acid)
DNA: GTCAGTGTTGCACAACGGTTAAGTGAAGAGGCTGTAAACCCAGACTGGATGGGTTCAATTCCCATCTCTGCCG
modifications: expressed or natural sequence
knockdown of FLuc indicator (HSV-1 ICP0 gene): little or no detectable knockdown

B4: U6 promoter: U6 pol III promoter, ~254 bp, SEQ ID NO: 51, driving sgRNA transcription (nucleic acid)
DNA: TCTAGAGAGGGCCTATTTCCCATGATTCCTTCATATTTGCATATACGATACAAGGCTGTTAGAGAGATAATTGGAATTAATTTGACTGTAAACACAAAGATATTAGTACAAAATACGTGACGTAGAAAGTAATAATTTCTTGGGTAGTTTGCAGTTTTAAAATTATGTTTTAAAATGGACTATCATATGCTTACCGTAACTTGAAAGTATTTCGATTTCTTGGCTTTATATATCTTGTGGAAAGGACGAAACACC
modifications: Synthetic U6 Promoter
knockdown of E6- and E7-based FLuc indicator constructs [1]: effective and comparable knockdown

B5: tRNAMHV-7: MHV68 tRNA promoter (SEQ ID NO: 50) fused to sgRNA (nucleic acid)
DNA: GCCAGGGTAGCTCAATTGGTAGAGCATCAGGCTAGTATCCTGTCGGTTCCGGTTCAAGTCCGGGCCCTGGTT
modifications: expressed or natural sequence
knockdown of E6- and E7-based FLuc indicator constructs [1]: effective and comparable knockdown

B6: tRNAGLU: human tRNA promoter, SEQ ID NO: 46, fused to sgRNA (nucleic acid)
DNA: TCCCTGGTGGTCTAGTGGTTAGGATTCGGCGCTCTCACCGCCGCGGCCCGGGTTCGATTCCCGGTCAGGGAA
modifications: expressed or natural sequence
knockdown of FLuc indicator (HSV-1 ICP0 gene): strong knockdown

B7: tRNAGLN: human glutamine tRNA promoter (SEQ ID NO: 41) fused to sgRNA (nucleic acid)
DNA: GGTTCCATGGTGTAATGGTTAGCACTCTGGACTCTGAATCCAGCGATCCGAGTTCAAATCTCGGTGGAACCT
modifications: expressed or natural sequence
knockdown of E6- and E7-based FLuc indicator constructs [1]: effective and comparable knockdown | knockdown of FLuc indicator (HSV-1 ICP0 gene): strong knockdown

B8: tRNAGLN2: human tRNA promoter, SEQ ID NO: 45, fused to sgRNA (nucleic acid)
DNA: GGTTCCATGGTGTAATGGTTAGCACTCTGGACTCTGAATCCAGCGATCCGAGTTCAAATCTCGGTGGAACCT
modifications: expressed or natural sequence
knockdown of FLuc indicator (HSV-1 ICP0 gene): strong knockdown
